Laboratory results published in patent publication US20260022118A1, “HETEROCYCLIC COMPOUNDS AS NRAS INHIBITORS” (Board of Regents, The University of Texas System, priority 2023, published 2026).
pIC50, pKd: −log10 of the molar value.

Legend:
NRAS G12D C118S = NRAS G12D C118S (Homo sapiens (Human), UniProt P01111, C118S/G12D); test: NRas G12D Surface Plasmon Resonance (SPR) binding assay; conditions: Avi-tagged biotinylated NRAS G12D C118S on streptavidin chip, 25° C., 1:1 kinetic or steady-state fit
Method in brief: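 Biotinylated Avi-tagged NRAS G12D C118S was captured at about 600 RU on a streptavidin chip alongside a blank reference channel. Compounds were run as 10-point 1:3 dilution series in HBS-P+ pH 7.4 with 5 mM MgCl2 and 3% DMSO, using a 2–4% DMSO solvent correction. A control compound at 10 μM was injected periodically to check protein activity.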

[1] = tested on: THP-1 cells expressing G12D (NRAS G12D); test: Inhibition of NRAS G12D-mediated phosphorylation of ERK (AlphaLISA p-ERK1/2) in THP-1 cells; assay type: cell-based; conditions: Homo sapiens, THP-1, 2 h, 2 hours incubation, HBSS with 0% or 10% FBS, p-ERK1/2 (Thr202/Tyr204) AlphaLISA, read-out: pERK THP-1 IC50
Method in brief: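 THP-1 cells expressing NRAS G12D, seeded in HBSS with 0% or 10% FBS, were exposed to test compound (1% DMSO final) for 2 h. p-ERK1/2 (Thr202/Tyr204) read by AlphaLISA SureFire Ultra. IC50 from curves normalized to no-inhibitor (100%) and 1 μM trametinib (0%) controls.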

NRAS G12D C118S, sequence (P01111 whole entry G12D/C118S): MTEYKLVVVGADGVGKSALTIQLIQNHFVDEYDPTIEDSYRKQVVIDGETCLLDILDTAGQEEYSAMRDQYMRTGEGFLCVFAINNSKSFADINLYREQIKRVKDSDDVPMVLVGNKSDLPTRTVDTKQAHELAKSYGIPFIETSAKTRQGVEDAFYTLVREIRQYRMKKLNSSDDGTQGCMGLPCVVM

Row | SMILES | pKd (NRAS G12D C118S) | pIC50 [1]
1 | C#Cc1c(F)ccc2cc(N)cc(-c3nc(CC)c4c([C@H]5[C@@H]6CNC[C@@H]65)nn(C5CC5)c4c3F)c12 [Example 88, 4-(3-((1R,5S,6r)-3-azabicyclo[3.1.0]hexan-6-yl)-1-cyclopropyl-4-ethyl-7-fluoro-1H-pyrazolo[4,3-c]pyridin-6-yl)-5-ethynyl-6-fluoronaphthalen-2-amine] | 8.34 | 6.64
2 | C#Cc1c(F)ccc2cc(O)cc(-c3ncc4c([C@H]5[C@@H]6CNC(CO)[C@@H]65)nn(C)c4c3F)c12 (stereo partly drawn) [Example 97, 5-ethynyl-6-fluoro-4-(7-fluoro-3-((1S,5R,6S)-2-(hydroxymethyl)-3-azabicyclo[3.1.0]hexan-6-yl)-1-methyl-1H-pyrazolo[4,3-c]pyridin-6-yl)naphthalen-2-ol] | 6.72 | 5.65
3 | C#Cc1c(F)ccc2cc(O)cc(-c3nc(OCC(C)C)c4c([C@H]5[C@@H]6CNC[C@@H]65)nn(C5CC5)c4c3F)c12 [Example 100, 4-(3-((1R,5S,6r)-3-azabicyclo[3.1.0]hexan-6-yl)-1-cyclopropyl-7-fluoro-4-isobutoxy-1H-pyrazolo[4,3-c]pyridin-6-yl)-5-ethynyl-6-fluoronaphthalen-2-ol] | 6.15 | 5.76
4 | C#Cc1c(F)ccc2cc(O)cc(-c3ncc4c([C@H]5[C@@H]6CNC[C@@H]65)nn(CCCN(C)C)c4c3F)c12 [Example 102, 4-(3-((1R,5S,6r)-3-azabicyclo[3.1.0]hexan-6-yl)-1-(3-(dimethylamino)propyl)-7-fluoro-1H-pyrazolo[4,3-c]pyridin-6-yl)-5-ethynyl-6-fluoronaphthalen-2-ol] | 5.12 | < 5.00
5 | C#Cc1c(F)ccc2cc(O)cc(-c3ncc4c([C@H]5[C@@H]6CNC[C@@H]65)nn([C@@H]5C[C@@H]5C)c4c3F)c12 [Example 104, 4-(3-((1R,5S,6r)-3-azabicyclo[3.1.0]hexan-6-yl)-7-fluoro-1-((1R,2S)-2-methylcyclopropyl)-1H-pyrazolo[4,3-c]pyridin-6-yl)-5-ethynyl-6-fluoronaphthalen-2-ol] | 5.93 | 4.90

Continued, values first:

Row | pKd (NRAS G12D C118S) | pIC50 [1] | SMILES
6 | 6.97 | 6.05 | C#Cc1c(F)ccc2cc(O)cc(-c3nc(CC)c4c(N5C[C@@H]6CC[C@H]5CN6)nn(C5CC5)c4c3F)c12 [Example 90, 4-(3-((1S,4S)-2,5-diazabicyclo[2.2.2]octan-2-yl)-1-cyclopropyl-4-ethyl-7-fluoro-1H-pyrazolo[4,3-c]pyridin-6-yl)-5-ethynyl-6-fluoronaphthalen-2-ol]
7 | 6.84 | 5.78 | C#Cc1c(F)ccc2cc(O)cc(-c3nc(OC)c4c(N5C[C@@H]6CC[C@H]5CN6)nn(C5CC5)c4c3F)c12 [Example 91, 4-(3-((1S,4S)-2,5-diazabicyclo[2.2.2]octan-2-yl)-1-cyclopropyl-7-fluoro-4-methoxy-1H-pyrazolo[4,3-c]pyridin-6-yl)-5-ethynyl-6-fluoronaphthalen-2-ol]
8 | 6.04 | 6.44 | C#Cc1c(F)ccc2cc(O)cc(-c3ncc4c([C@H]5[C@@H]6CNC(C(=O)OC)[C@@H]65)nn(C)c4c3F)c12 (stereo partly drawn) [Example 96, methyl (1S,5R,6S)-6-(6-(8-ethynyl-7-fluoro-3-hydroxynaphthalen-1-yl)-7-fluoro-1-methyl-1H-pyrazolo[4,3-c]pyridin-3-yl)-3-azabicyclo[3.1.0]hexane-2-carboxylate]
9 | 6.31 | < 4.30 | C#Cc1c(F)ccc2cc(O)cc(-c3ncc4c(C5[C@H]6CNC[C@@H]56)cn(CCO)c4c3F)c12 (stereo partly drawn) [Example 103, 4-(3-((1R,5S)-3-azabicyclo[3.1.0]hexan-6-yl)-7-fluoro-1-(2-hydroxyethyl)-1H-pyrrolo[3,2-c]pyridin-6-yl)-5-ethynyl-6-fluoronaphthalen-2-ol]
10 | 7.73 | 6.29 | C#Cc1c(F)ccc2cc(O)cc(-c3ncc4c(N5CC6CCC5CN6)nn(C5CC5)c4c3F)c12 (stereo not shown) [Example 105, 4-(3-(2,5-diazabicyclo[2.2.2]octan-2-yl)-1-cyclopropyl-7-fluoro-1H-pyrazolo[4,3-c]pyridin-6-yl)-5-ethynyl-6-fluoronaphthalen-2-ol]
11 | 8.03 | 6.79 | C#Cc1c(F)ccc2cc(O)cc(-c3ncc4c(N5C[C@@H]6CC[C@H]5CN6)nn(C5CC5)c4c3F)c12 [Example 106, 4-(3-((1S,4S)-2,5-diazabicyclo[2.2.2]octan-2-yl)-1-cyclopropyl-7-fluoro-1H-pyrazolo[4,3-c]pyridin-6-yl)-5-ethynyl-6-fluoronaphthalen-2-ol]
